From US9023853B2, “Janus kinase 2 (JAK2) inhibitor for the treatment of lupus” (Cephalon, Inc., priority 2010, dated 2015)

Assays:
Format in all cases: in vivo, mouse
IL-12 = assay: Serum IL-12 (Luminex) in MRL/lpr mice
Experimental: For the processing of serum samples for cytokine analysis, frozen plasma at -80° C. was thawed on ice, vortexed, and centrifuged for 10 minutes to remove debris and aggregates. A total of 25-50 μL of serum was used for Luminex® assays following the manufacturer's instructions. Ten different mouse cytokines were measured using the mouse cytokine 10-plex bead kit (Invitrogen, Carlsbad, Calif., no. LMC0001). Briefly, filter plates (Millipore, Billerica, Mass., no. […]10), were pre-wet with 200 μL of wash solution (kit component) and 25 μL of beads were added per well. Serum samples were diluted and a total volume of 50 μL was added per well (ie, 25 μL of sample serum plus 25 μL of assay diluent as provided by the manufacturer). Plates with beads were incubated for 2 hours at room temperature (RT) on an orbital shaker in the dark. At the end of the incubation, plate(s) were washed twice in kit buffer, secondary biotinylated antibody was added at a 1:10 dilution (100 μL) in biotin diluent provided with the kit. Plates were incubated at RT for 1 hour in the dark then washed twice in kit buffer. Strepavidin in assay diluent was added at 100 μL per well, then incubated for 30 minutes at RT in the dark. The plates were washed 3 times then 100 μL of kit wash solution was added and agitated for 2-3 minutes at RT in the dark. […]

pSTAT3 [1] = assay: Pharmacodynamic renal pSTAT3 (JAK2 inhibition marker) in MRL/lpr mice; details: four hours after final dosing at EOS
From the text: MRL/lpr mice were first randomized, initial bleeds collected, and body weights recorded for baseline measurements (FIG. 1). All mice were individually ear tagged and were monitored throughout the entire experiment (e.g., “Group#-Cage letter-Mouse#”, so “3B5”=Group 3 (G3), cage B, mouse#5). Mice were age-matched and treatment started at 6-8 weeks of age. Cheek bleeds and urine collection continued weekly throughout the experiment. Mice were individually tracked for several parameters including cytokine and ANA levels, proteinuria, body mass, lymphomegaly, general health, and mortality. All parameters were evaluated bi-monthly except mortality which was monitored daily. All groups consisted of a minimum of at least 10-12 mice per group. Ex vivo experiments included flow cytometry analyses for plasma cells, serum complement C3 and ANA levels; urine protein and leukocytes, serum cytokine profiling, renal histo pathology, and determination of compound levels (pharmacokinetics (PK)) in the spleen, kidney and plasma. Mice were tracked on an individual basis. For all data, mice were grouped into populations and data graphed as mean±SEM. Bi-monthly observations and data collected were recorded for each group, except mortality which was performed daily. End-stage readouts were analyzed as described in the MATERIALS AND METHODS section (above) and in FIG. 1. […]

pSTAT3 [2] = assay: Pharmacodynamic kidney pSTAT3 (JAK2 inhibition marker) in NZM mice; details: vs vehicle or CTX, p<0.01
Experimental: Age mated, female, NZM or NZW/LacJ, mice were matured for the study of lupus nephritis for a total of 7 months or 210 days at which time urine was collected for proteinuria detection. Mice with 0.5-1.0 mg/ml of urine protein as determined by an optical density-based total protein precipitation assay and cross-checked for 30-300 mg/dl of protein as determined by a stick assay were considered proteinuria positive and selected for study entry. Groups were normalized to contain a Gaussian distribution of proteinuria positive animals (i.e., ⅓ low proteinuria, ⅓ medium, ⅓ high) then randomized between groups before ear marking and taking baseline measures including urine and serum collections. A total of five mice from the total population were randomly selected for baseline kidney histology evaluation. Treatments and tests for each group are as described in FIG. 12. Briefly, with a minimum of 10 mice per group, COMPOUND A was administered at 100 mg/kg or 55 mg/kg, both twice a day and orally. […] Vehicle included 3% DMSO, 10% Solutol and 87% PBS. […] End-stage lupus nephritis was evaluated by histopathology and scored by a board certified pathologist for the assessment of total renal damage in diseased animals using the scoring method described by Smith et al (Smith, Dong et al. 2007). […] Day-98 or “end of treatment/study” represents 310 days of age for the NZM animals.

plasma cells = assay: BrdU short-lived / long-lived plasma cells in spleen and bone marrow of NZM mice; details: 15 week old NZM mice, two weeks
Experimental: Twenty-four hours before the end of the study each mouse was injected i.p. with 2 mg of thymidine analog, bromodeoxyuridine (BrdU). BrdU (Cat#550891) and an anti-BrdU-FITC staining kit (Cat#559619) were obtained from BD Biosciences (Franklin Lakes, N.J.). Twenty-four hours after BrdU injection spleen and bone marrow were individually processed to isolate leukocytes for flow staining. Cells were surface stained with anti-CD19-Cyc, anti-CD38-PE and anti-CD138-APC (all obtained from eBioscience in San Diego, Calif.) as well as anti-BrdU-FITC (from the BrdU kit). Analysis included gating on live SSC/FSC populations, CD19-negative, CD38-positive and gating on CD138-positive, BrdU-negative (non-cycling, long-lived plasma cells, region R2) or BrdU-positive (cycling, short-lived plasma cells, region R1) as shown in FIG. 42. All samples were analyzed using an Accuri C6 Flow Cytometer. Complete media (R10) was used for all experiments involving the ex vivo culture of splenocytes for all Elispot experiments. […] The Figures depict spleen short-lived plasma cells (FIG. 38), bone marrow isolated short-lived plasma cells (FIG. 39), spleen long-lived plasma cells (FIG. 40), and bone marrow isolated long-lived plasma cells (FIG. 41). Also depicted are representative dot plots providing gating examples and short-lived plasma cells, R1, and long-lived plasma cells, R2, gates (FIG. 42). Graphs show mean±SEM, statistical test included two-tailed, Mann-Whitney t-test, *p<0.05 was considered significant. All events shown were originally size gated on live cells, graphs show CD19-negative, CD38/CD138-double positive populations that had either incorporated BrdU (cycling, thus short-lived plasma cells, see region R1) or not incorporated BrdU (non-cycling, thus long-lived plasma cells, see region R2).

CN1CCN(c2cccc(Nc3nc4c(-c5ccc(S(C)(=O)=O)cc5)cccn4n3)c2)CC1 [COMPOUND A, [8-(4-methanesulfonyl-phenyl)-[1,2,4]triazolo[1,5-a]pyridin-2-yl]-[3-(4-methyl-piperazin-1-yl)-phenyl]-amine]
serum IL-12 decrease compared to vehicle (IL-12; 55 mg/kg p.o. b.i.d.): 50.7%
serum IL-12 decrease compared to vehicle (IL-12; 100 mg/kg p.o. b.i.d.): 56.1%
renal pSTAT3 (pSTAT3 [1]; 55 mg/kg): Significant reductions
renal pSTAT3 (pSTAT3 [1]; 100 mg/kg): Significant reductions
levels of pSTAT3 in the kidneys (pSTAT3 [2]): significantly lower
short lived plasma cells in the bone marrow (plasma cells; 100 mg/kg orally b.i.d., FIG. 39): impacted
long lived plasma cells in the bone marrow (plasma cells; 100 mg/kg orally b.i.d., FIG. 41): impacted
long lived plasma cells in the spleen (plasma cells; all three doses (100, 55, 30 mg/kg) orally b.i.d., FIG. 40): impacted
